Laboratory results as given in PubChem BioAssay AID1963846 (Molecular Pharmacology Branch, DTP, NCI, 2024).
Values joined by “and” are separate entries in the source; they are usually repeats but may differ in a detail not shown here. Identical values can stand only once.

Test system: 454973-116-R2-J3-PDC complex spheroid viability
Experiment: Anticancer human tumor 454973-116-R2-J3-PDC patient-derived pancreatic carcinoma cell line growth inhibition [POLQ]
Details: for viability, T/C: stronger effect = lower value; active means viability on the fitted dose curve at most 10% of control; inactive means the rest
Method: Multicellular complex tumor spheroid response to Polymerase (POL) inhibitors (novobiocin, ART-558, RP6685) in combination with a variety of drugs and investigational agents in selected tumor cell lines
The POL inhibitors (novobiocin, ART-558, and RP6685) were evaluated both individually and in combination with standard of care and investigational anticancer small molecules within a complex spheroid model of solid tumors. . Complex spheroids include a stromal component modeled by human endothelial cells (HUVEC) and fibroblasts modeled by human mesenchymal stem cells (MSCs). The concentration ranges selected for each drug and investigational agent were based upon clinically achievable concentrations if the clinical Cmax of the agent was known.
Compounds. The drugs and investigational agents: novobiocin (NSC847541), ART-558 (NSC835418), RP-6685 (NSC848927), peposertib (NSC802822), ceralasertib (NSC780249), elimusertib (NSC800525), camonsertib (NSC841442), AZD-1390 (NSC803789), olaparib (NSC753686), talazoparib (NSC767125), rucaparib (NSC756644), sotorasib (NSC818433), MRTX-1133 (NSC836407), SN-38 (NSC673596), topotecan (NSC609699), epotoside (NSC141540), doxorubicin (NSC123127), gemcitabine (NSC613327), 5-fluorouracil (NSC19893), paclitaxel (NSC125973), vemurafenib (NSC761431), MSA-2 (NSC828583), SN-011 (NSC837082), adavosertib (NSC754352), prexasertib (NSC758257), carboplatin (NSC241240) and oxaliplatin (NSC266046), were obtained from the National Cancer Institute (NCI) Developmental Therapeutics Program Chemical Repository (21). The FDA-approved anticancer drug set is available from the Developmental Therapeutics Program at https://dtp.cancer.gov/organization/dscb/obtaining/. […] The stock solutions were prepared in dimethyl sulfoxide (DMSO, Sigma-Aldrich, St. Louis, MO, cat. D2650), except for the platinum compounds which were prepared in saline (Quality Biological, Gaithersburg, MD, cat. 114-055-101), at 800-fold the tested concentration and stored at -70 degrees C prior to their use. All drugs and investigational agents were tested over a range starting from a high concentration at or near the clinical Cmax and decreasing in half-log increments. If the clinical Cmax for an agent had not been determined, the highest concentration tested was 10 microM, except for SN-38, which was tested at a high concentration of 1 microM.
Cell Culture. All cells were maintained in an incubator at 37 degrees C and 5% CO2 with 95% humidity. The PDC lines were cultured according to standard operating procedures established by the NCI PDMR (https://pdmr.cancer.gov). Table 3 of the manuscript, lists the cell lines along with the number of the three cell types plated to form the mct-spheroids and media for tumor cell growth. After thawing, all PDC lines, except 997537-175-T-J1-PDC and 415267-285-R-J2-PDC, were cultured in Matrigel-coated flasks prepared with a working solution of 1X Ham's F-12 nutrient mix, without supplementation (Thermo Fisher Scientific, cat. 11765054), 100 U/mL penicillin-streptomycin (Thermo Fisher Scientific, cat. 15140122), and 2.5% Matrigel (Corning Inc., Corning, NY, cat. 354248) for the first three passages. The two PDC lines 997537-175-T-J1-PDC and 415267-285-R-J2-PDC were cultured on uncoated flasks. The 857933-349-R-J2-PDC line was cultured in 6C/Colon 1B media containing advanced DMEM/F-12 (Thermo Fisher Scientific, cat. 12634028), 10 mM HEPES (Thermo Fisher Scientific, cat. 15630080), 1X GlutaMAX supplement (Thermo Fisher Scientific, cat. 35050061), 0.1 mg/mL primocin (InvivoGen, San Diego, CA, cat. ant-pm-2), 10% defined fetal bovine serum, heat inactivated (HyClone Laboratories Inc., Logan, UT, cat. SH30070.03HI), 50% L-WRN conditioned media (ATCC, cat. CRL-3276), 1.25 mM N-Acetyl-L-cysteine (Sigma-Aldrich, cat. A9165), 10 mM nicotinamide (Sigma-Aldrich, cat. N0636), 1X B-27 supplement (Thermo Fisher Scientific, cat. 17504044), 1X N-2 supplement (Thermo Fisher Scientific, cat. […]
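Further: spheroids exposed to drugs for seven days before measurement.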
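Wherever viability, T/C is given: percent viability relative to DMSO vehicle control wells taken as 100%.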

CCCS(=O)(=O)Nc1ccc(F)c(C(=O)c2c[nH]c3ncc(-c4ccc(Cl)cc4)cc23)c1F
7770 nM and 8190 nM and > 10000 nM: IC50 (curve of compound)
inactive: viability, T/C (compound 0.0316 µM) 111% and 107% and 105% | viability, T/C (compound 0.1 µM) 107% (2×) and 110% | viability, T/C (compound 0.316 µM) 108% (2×) and 115% | viability, T/C (compound 1 µM) 109% and 111% and 104% | viability, T/C (compound 3.16 µM) 116% and 110% and 112% | viability, T/C (compound 10 µM) 33% and 37.7% and 50.1%

CC1COCCN1c1cc(C2(O)CC3CCC(C2)O3)c2cnn(-c3ccn[nH]3)c2n1 (configuration not stated)
inactive: viability, T/C (compound 0.0316 µM) 100% and 99.2% and 87.4% | viability, T/C (compound 0.1 µM) 71.6% and 69.7% and 51.4% | viability, T/C (compound 0.316 µM) 29.2% and 34.4% and 21.1% | viability, T/C (compound 1 µM) 24.1% and 25.3% and 11.3% | viability, T/C (compound 3.16 µM) 23.8% and 24.9% and 15.1% | viability, T/C (compound 10 µM) 14.6% and 14.2% and 9.62%
181 nM and 194 nM and 106 nM: IC50 (curve of compound)

CC(C)n1c(=O)n(C)c2cnc3cc(F)c(-c4ccc(OCCCN5CCCCC5)nc4)cc3c21
> 10000 nM: IC50 (curve of compound)
inactive: viability, T/C (compound 0.0316 µM) 106% and 110% and 109% | viability, T/C (compound 0.1 µM) 96.6% and 98.5% and 110% | viability, T/C (compound 0.316 µM) 107% and 110% and 113% | viability, T/C (compound 1 µM) 109% and 97.5% and 118% | viability, T/C (compound 3.16 µM) 98% and 97.2% and 102% | viability, T/C (compound 10 µM) 81.2% and 84% and 89.7%

Cn1ncnc1[C@H]1c2n[nH]c(=O)c3cc(F)cc(c23)N[C@@H]1c1ccc(F)cc1
> 100 nM: IC50 (curve of compound)
inactive: viability, T/C (compound 0.000316 µM) 112% and 102% (2×) | viability, T/C (compound 0.001 µM) 91.7% and 103% and 104% | viability, T/C (compound 0.00316 µM) 92.2% and 107% and 93.9% | viability, T/C (compound 0.01 µM) 95.1% and 86.6% and 101% | viability, T/C (compound 0.0316 µM) 111% and 86.4% and 102% | viability, T/C (compound 0.1 µM) 89.9% and 81.5% and 91.9%

COc1cccc2c1C(=O)c1c(O)c3c(c(O)c1C2=O)CC(O)(C(=O)CO)CC3OC1CC(N)C(O)C(C)O1 (configuration not stated) + Nc1ccc(C#CCN(C(=O)Cc2ncc(C(F)(F)F)cc2C(F)(F)F)c2ccc(F)cc2)nn1
37.4 nM: IC50 (curve of first compound, second compound 0.0316 µM)
36 nM: IC50 (curve of first compound, second compound 0.1 µM)
32.2 nM: IC50 (curve of first compound, second compound 3.16 µM)
active: viability, T/C (second compound 0.0316 µM, first compound 1 µM) 5.05% | viability, T/C (second compound 0.0316 µM, first compound 3.16 µM) 0.67% | viability, T/C (second compound 0.0316 µM, first compound 10 µM) 0.12% | viability, T/C (second compound 0.1 µM, first compound 1 µM) 6.06% | viability, T/C (second compound 0.1 µM, first compound 3.16 µM) 1.06% | viability, T/C (second compound 0.1 µM, first compound 10 µM) 0.39% | viability, T/C (second compound 0.316 µM, first compound 0.316 µM) 11.7% | viability, T/C (second compound 0.316 µM, first compound 1 µM) 4.87% | viability, T/C (second compound 0.316 µM, first compound 3.16 µM) 0.69% | viability, T/C (second compound 0.316 µM, first compound 10 µM) 0.21% | viability, T/C (second compound 1 µM, first compound 1 µM) 4.25% | viability, T/C (second compound 1 µM, first compound 3.16 µM) 0.36% | viability, T/C (second compound 1 µM, first compound 10 µM) 0.66% | viability, T/C (second compound 3.16 µM, first compound 0.316 µM) 14.6% | viability, T/C (second compound 3.16 µM, first compound 1 µM) 3.6% | viability, T/C (second compound 3.16 µM, first compound 3.16 µM) 0.55% | viability, T/C (second compound 3.16 µM, first compound 10 µM) 0.26% | viability, T/C (second compound 10 µM, first compound 0.316 µM) 10.2% | viability, T/C (second compound 10 µM, first compound 1 µM) 3.36% | viability, T/C (second compound 10 µM, first compound 3.16 µM) 0.54% | viability, T/C (second compound 10 µM, first compound 10 µM) 0.27%
inactive: viability, T/C (second compound 0.0316 µM, first compound 0.0316 µM) 55.6% | viability, T/C (second compound 0.0316 µM, first compound 0.1 µM) 19.3% | viability, T/C (second compound 0.0316 µM, first compound 0.316 µM) 15.8% | viability, T/C (second compound 0.1 µM, first compound 0.0316 µM) 54.4% | viability, T/C (second compound 0.1 µM, first compound 0.1 µM) 20.7% | viability, T/C (second compound 0.1 µM, first compound 0.316 µM) 14.5% | viability, T/C (second compound 0.316 µM, first compound 0.0316 µM) 50.5% | viability, T/C (second compound 0.316 µM, first compound 0.1 µM) 20.4% | viability, T/C (second compound 1 µM, first compound 0.0316 µM) 49.6% | viability, T/C (second compound 1 µM, first compound 0.1 µM) 19.9% | viability, T/C (second compound 1 µM, first compound 0.316 µM) 16.4% | viability, T/C (second compound 3.16 µM, first compound 0.0316 µM) 51.6% | viability, T/C (second compound 3.16 µM, first compound 0.1 µM) 17.8% | viability, T/C (second compound 10 µM, first compound 0.0316 µM) 48.2% | viability, T/C (second compound 10 µM, first compound 0.1 µM) 12.7%
< 31.6 nM: IC50 (curve of first compound, second compound 0.316 µM) | IC50 (curve of first compound, second compound 1 µM) | IC50 (curve of first compound, second compound 10 µM)

O=c1[nH]cc(F)c(=O)[nH]1
3340 nM and 1960 nM and 4010 nM: IC50 (curve of compound)
inactive: viability, T/C (compound 0.0316 µM) 107% and 104% and 112% | viability, T/C (compound 0.1 µM) 103% and 102% and 99.7% | viability, T/C (compound 0.316 µM) 101% and 92.2% and 104% | viability, T/C (compound 1 µM) 99.9% and 71.4% and 92.9% | viability, T/C (compound 3.16 µM) 50.8% and 29.6% and 53.3% | viability, T/C (compound 10 µM) 32.6% and 40.2% and 36.8%
